Consider 5 compounds from patent publication US20260198499A1, “PLANT STOMATAL OPENING REGULATOR” (priority 2022, published 2026).

Assay [1] concerns stomatal aperture of Commelina benghalensis leaf disks. Briefly: Stomatal opening regulatory action measurement test 1 (IC50 of stomatal aperture, leaf disks). The class given is cell-based. Conditions: read-out: IC50 (50% inhibitory concentration of stomatal aperture). The method, then:
(§1) Part of the stem of Commelina benghalensis was inserted into a planter filled with mixed soil of vermiculite and peat moss, and grown indoors with natural light (room temperature: 25±3° C.) for 2 to 4 weeks. The planter was placed in a dark room and subjected to dark treatment overnight. After the dark treatment, leaf disks with a diameter of 4 mm were cut from fully expanded leaves using a hole punch (Biospy Punch, Kai Medical).
Each test solution was dispensed into five wells of a 96-well plate at 50 μl/well, and the leaf disks were immersed therein, followed by incubation under light irradiation (50 μmol m^−2s^−1 blue light) for 3 hours. After incubation, stomatal closure was evaluated under observation images (600×) using a stereofluorescence microscope (Leica M205FA). The minor diameter of about 20 stomata (hereinafter referred to as “stomatal aperture”) was measured for each leaf disk.

Assay [2] deals with ABA-related responses in Arabidopsis thaliana. Description: ABA-related responses (seed germination, ABA-responsive genes RAB18 and RD29B). It is filed as in vivo.
For assay [3], the system named is chrysanthemums (Chrysanthemum). Description: Drought tolerance test 1 (dehydrated chrysanthemum bouquet). The class given is in vivo. Conditions: 21° C., 90 minutes, relative humidity 35 to 40%, FIG. 6. The method, then:
(§2) A bouquet of chrysanthemums (Chrysanthemum) was purchased and cultured in a water bottle at 24° C. with a photoperiod of 16 h white light (100 μmol m^−2s^−1)/8 h darkness for 2 days. After the dark period ended, the leaves were immersed in a test solution (0.033% Makupika (spreader, Isk Biosciences K. K.)) containing the test compound (compound 1 (BITC), compound 4 (m-Bis-BITC), or abscisic acid (ABA)) and incubated under white light (100 μmol m^−2s^−1) for 3 hours or incubated with a photoperiod of 16 h light/16 h darkness (light→dark→light) for 48 hours. After incubation, the stomatal aperture was measured in the same manner as in Test Example 1.
After incubation for 3 hours in Test Example 5, the bouquet was dehydrated and incubated at 21° C. for 90 minutes under 10 μmol m^−2s^−1 white light at a relative humidity of 35 to 40%.

In assay [4] the test system is stomatal opening in intact leaves of chrysanthemums. Description: Stomatal opening regulatory action measurement test 3 (intact chrysanthemum leaves). It is filed as in vivo. The settings on record: for inhibitory effect on stomatal opening in intact leaves: chrysanthemum leaves immersed in test solution, white light 3 hours, FIGS. 4 and 5. The method, then:
as §2

In assay [5] the test system is plasma membrane proton pump (H+-ATPase) phosphorylation in guard cells. Briefly: Immunohistochemical measurement of blue light- and fusicoccin-induced phosphorylation of the plasma membrane proton pump in guard cells. The class given is cell-based, Arabidopsis thaliana. The settings on record: compound 1 100 μM, compound 4 20 µM, compound 5 20 μM, FIG. 2; for inhibitory effect on blue light-induced phosphorylation of the plasma membrane proton pump: Arabidopsis guard cells; for inhibitory effect on fusicoccin-induced phosphorylation of the plasma membrane proton pump: fusicoccin 10 μM. The method, then:
Blue light- and fusicoccin-induced phosphorylation of the plasma membrane proton pump in guard cells from the epidermis of Arabidopsis thaliana was measured immunohistochemically as previously reported (Hayashi et al. (2011) Immunohistochemical detection of blue light-induced phosphorylation of the plasma membrane H^+-ATPase in stomatal guard cells. Plant Cell Physiol. 52:1238-1248). The test compounds used were compound 1 (BITC), compound 4 (m-Bis-BITC), and compound 5 (Tris-BITC). The concentration of compound 1 during action was 100 μM, the concentration of compound 4 during action was 20 µM, the concentration of compound 5 during action was 20 μM, and the concentration of fusicoccin during action was 10 μM.

In assay [6] the test system is stomatal opening of leaf disks. Briefly: Stomatal opening regulatory action measurement test 2 (light- and fusicoccin-induced stomatal opening). Conditions: compound 1 100 μM, FIG. 1. The class given is cell-based, Commelina benghalensis. The protocol: as §1
[…] After incubation, stomatal closure was evaluated under observation images (600×) using a stereofluorescence microscope (Leica M205FA). The minor diameter of about 20 stomata (hereinafter referred to as “stomatal aperture”) was measured for each leaf disk. Based on the measured values of stomatal aperture at each concentration for each test compound, the 50% inhibitory concentration (IC50) of stomatal aperture was calculated.
Compound 1 (BITC: benzyl isothiocyanate) (final concentration in the test solution: 100 μM) and abscisic acid (final concentration in the test solution: 20 µM) were used as test compounds. A test solution was also prepared by adding fusicoccin (final concentration: 10 μM) in addition to the test compound. […] The mean and standard deviation (SD) were calculated based on the measured values.

For assay [7], the system named is ABA-responsive kinase substrate (AKS). Description: Immunoblot analysis of phosphorylation of ABA-responsive kinase substrate (AKS) in guard cells. It is filed as cell-based. The settings on record: compound 1 100 μM; Vicia faba guard cells; FIG. 3. The protocol: Abscisic acid (ABA)-induced phosphorylation of ABA-responsive kinase substrate (AKS) in guard cells from the epidermis of broad bean (Vicia faba) was measured by immunoblot analysis as previously reported (Takahashi et al. (2007) Protein Phosphorylation and Binding of a 14-3-3 Protein in Vicia Guard Cells in Response to ABA. Plant and Cell Physiology. 48:1182-1191). The test compounds used were compound 1 (BITC) and abscisic acid. The concentration of compound 1 during action was 100 μM, and the concentration of abscisic acid during action was 20 μM.
(In western blotting, separated proteins are transferred to a membrane and probed.)

Assay [8] deals with Chinese cabbage (Brassica rapa). Briefly: Drought tolerance test 2 (sprayed Chinese cabbage, water depleted). It is filed as in vivo. Conditions: Chinese cabbage sprayed with 50 μM, 24 hours, 25° C., relative humidity 40 to 50%, FIG. 7. The method, then:
A test solution (0.033% Makupika (spreader, Isk Biosciences K.K.)) containing compound 4 (m-Bis-BITC) was sprayed onto 4- to 5-week-old Chinese cabbage (Brassica rapa) growing in 110 ml of soil. The concentration of compound 4 in the test solution was 50 μM. Then, the water was depleted, and the plants were cultured for 24 hours in a greenhouse at 25° C. at a relative humidity of 40 to 50% on a sunny day.

The mark [9] stands for this setting: Commelina benghalensis leaf disks, 3 hours under 50 μmol m−2s−1 blue light.

Each structure is given as a SMILES string. Read-outs that look alike come from different tables or passages of the source.

As for `S=C=NCc1ccccc1` [Compound 1, benzyl isothiocyanate], in assay [1] (setting [9]), the IC50 is 29.1 µM. For the same compound, the “effect on ABA-related responses, including inhibition of seed germination and induction of ABA-responsive genes (RAB18 and RD29B)” value in assay [2] was “no effect”. Also, the “drought tolerance and wilting” value in assay [3] was “could improve drought tolerance and suppress wilting”. Further, in assay [4], the “inhibitory effect on stomatal opening in intact leaves” value is “inhibitory effect on stomatal opening even in intact leaves”. Further, in assay [5], the “inhibitory effect on blue light-induced phosphorylation of the plasma membrane proton pump” value was “inhibitory effects” and the “inhibitory effect on fusicoccin-induced phosphorylation of the plasma membrane proton pump” value is reported as “inhibitory effects”. Moreover, the “inhibitory effect on stomatal opening compared with abscisic acid” value in assay [6] (abscisic acid 20 µM, 3 hours red and blue light) is on record as “more potent inhibitory effect on stomatal opening than abscisic acid”. The “inhibitory effect on stomatal opening induced by fusicoccin” value in assay [6] (fusicoccin 10 μM, 3 hours) is recorded as “exhibited an inhibitory effect on stomatal opening induced by fusicoccin”. Moreover, the “induction of phosphorylation of the ABA-responsive kinase substrate” value in assay [7] is recorded as “did not induce phosphorylation”.
Regarding `S=C=NCc1cccs1` [Compound 2], in assay [1] (Commelina benghalensis, 3 h), the IC50 is 20.6 µM.
With `S=C=NCc1cccc(CN=C=S)c1` [Compound 4], in assay [1] (setting [9]), the IC50 was found to be 1.7 µM. In assay [3], the “drought tolerance and wilting” value was “could improve drought tolerance and suppress wilting”. In assay [8], the “drought tolerance and wilting” value is “could improve drought tolerance and suppress wilting over a long period of time”. Further, the “inhibitory effect on stomatal opening in intact leaves” value in assay [4] is given as “inhibitory effect on stomatal opening even in intact leaves”. Also, in assay [4] (chrysanthemum leaves, 48 hours incubation, m-Bis-BITC 50 µM, FIG. 5), the “persistence of the stomatal opening inhibitory effect” value is listed as “excellent in the persistence”. For the same compound, in assay [5], the “inhibitory effect on blue light-induced phosphorylation of the plasma membrane proton pump” value is reported as “inhibitory effects” and the “inhibitory effect on fusicoccin-induced phosphorylation of the plasma membrane proton pump” value is “inhibitory effects”.
Regarding `S=C=NCc1cc(CN=C=S)cc(CN=C=S)c1` [Compound 5, 1,3,5-tris(isothiocyanatomethyl)benzene], in assay [1] (Commelina benghalensis, 3 h), the IC50 worked out at 0.44 µM. Besides, in assay [5], the “inhibitory effect on blue light-induced phosphorylation of the plasma membrane proton pump” value is recorded as “inhibitory effects” and the “inhibitory effect on fusicoccin-induced phosphorylation of the plasma membrane proton pump” value is “inhibitory effects”.
As to `S=C=NC[C@H]1CC[C@H](CN=C=S)CC1` [Compound 27, trans-1,4-bis(isothiocyanatomethyl)cyclohexane], the IC50 in assay [1] (Commelina benghalensis, 3 h) was 11.4 µM.
